This note sets out measurements from patent US20140113949A1, “METHODS FOR REDUCING NEURODEGENERATION” (NESTEC S.A., priority 2011, published 2014).

SMILES strings stand for the structures.

One experiment concerns mTOR. The experiment can be described thus: mTOR mRNA expression by semi-quantitative qPCR in MDCK cells. It counts as cell-based, Canine. To be noted: mRNA normalized to TATA box binding protein. On the procedure:
(§1) Cell Culture procedure: Commercially available Madin Darby Canine Kidney (MDCK) cells were obtained from ATCC as a stock suspension of immortalized cells. MDCK cells were cultured at 37° C. in an atmosphere of 95% air/5% CO2 and Dulbecco's Modified Eagle Medium (DMEM) media containing 10% fetal calf serum and 1% antibiotic/antimicrobial solution (DMEM-loaded). The media was changed and cells passed every 1 to 2 days using a solution containing 0.05% trypsin. For RNA extraction, cells were plated at a seeding density of 50,000 to 60,000 cells/cm^2 in 35 mm dishes. Twenty-four hours after seeding, media was changed to either control (DMEM-loaded) or test media (DMEM-loaded+1 nM melatonin). Cells were harvested 1, 3, or 5 days after exposure to control or test media. Media was changed in the remaining dishes on the days of cell harvesting. Total RNA was harvested from MDCK cell lysates using RNAlater RNA stabilization reagent and following the manufacturer's directions (Ambion, Austin, Tex.). mRNA transcripts of mTOR, S6 Kinase, and TATA box binding protein genes were analyzed by semi-quantitative qPCR on days 1, 3, and 5 of media treatment. TATA box binding protein gene transcript was used to normalize the expression of mTOR and S6 Kinase, as it is widely used as a “housekeeping” gene. The procedure in Example 1 was repeated.
For orientation: Real-time PCR tracks product formation cycle by cycle.

For a further experiment, the system named is S6 Kinase. Nature of the experiment: S6 Kinase mRNA expression by semi-quantitative qPCR in MDCK cells. The format is cell-based, Canine. To be noted: mRNA normalized to TATA box binding protein. On the procedure:
as §1

[1] abbreviates: Trial 1, Day 1, control media + 1 nM melatonin.
Where [2] appears, read: Trial 1, Day 3, control media + 1 nM melatonin.
[3] abbreviates: Trial 1, Day 5, control media + 1 nM melatonin.
Where [4] appears, read: Trial 2, Day 1, control media + 1 nM melatonin.
The mark [5] stands for this setting: Trial 2, Day 3, control media + 1 nM melatonin.
[6] abbreviates: Trial 2, Day 5, control media + 1 nM melatonin.

Consider `COc1ccc2[nH]cc(CCNC(C)=O)c2c1` [melatonin, 5-methoxy-N-acetyltryptamine], for which the “mTOR Induction” value with mTOR (setting [1]) stood at 0.93; with mTOR (setting [2]), 0.76; with mTOR (setting [3]), 0.49; in the experiment on mTOR (setting [4]), 0.98; with mTOR (setting [5]), 1.02; in the experiment on mTOR (setting [6]), 1.01. Besides, the “S6 Kinase Induction” value with S6 Kinase (setting [1]) came to 1.14; in the experiment with S6 Kinase (setting [2]) it was 0.66; with S6 Kinase (setting [3]) it was 0.51; with S6 Kinase (setting [4]), 1.05; with S6 Kinase (setting [5]), 0.82; in the experiment with S6 Kinase (setting [6]) it was 0.75.
